From patent US20170107179A1 (Tetraphase Pharmaceuticals, Inc., priority 2010, published 2017)
In brackets after ≈: the same amount, converted by molar mass. Read-outs that look alike come from different tables or passages of the source.

Tests used:
[1] = system: S. pneumoniae strain SP514; assay: Immunocompetent CD-1 murine lung infection model; format: in vivo; settings: immunocompetent CD-1 mice, SP514, orally dosed 30 mg/kg at 5, 24 and 36 hours post-infection (FIG. 2)
Experimental: Compound 102 was tested in an immunocompetent CD-1 murine model of lung infection challenged with S. pneumoniae strain SP514.

[2] = system: Gram-negative and Gram-positive organisms (clinical isolates); assay: Broth microdilution MIC against clinical isolates (CLSI M7-A8), Table 9; format: cell-based
E. coli DH10B EC969 TetM = assay: MIC, E. coli DH10B recombinantly expressing tetracycline-resistance gene; settings: arabinose-induced, ampicillin in medium
[3] = system: Viridans group streptococci; assay: Broth microdilution MIC by tetracycline resistance phenotype (Table 10); format: cell-based; design: unit not given beside the values
[4] = system: E. coli DH10B EC1082 TetA; assay: MIC, E. coli DH10B recombinantly expressing tetracycline-resistance gene; settings: arabinose-induced, ampicillin in medium
E. coli DH10B EC971 LacZ = assay: MIC, E. coli DH10B recombinantly expressing control gene
[5] = system: E. coli DH10B EC1153 Tet(X); assay: MIC, E. coli DH10B recombinantly expressing tetracycline-resistance gene; settings: arabinose-induced, ampicillin in medium
[6] = system: Legionella pneumophila, 70 isolates, serogroups 1-6; assay: microbe, parasite or virus in culture; format: cell-based
S. maltophila = assay: Broth microdilution MIC by tetracycline resistance phenotype (Table 10); format: cell-based; design: unit not given beside the values
E. coli DH10B EC970 TetK = assay: MIC, E. coli DH10B recombinantly expressing tetracycline-resistance gene; settings: arabinose-induced, ampicillin in medium
[7] = system: E. coli DH10B EC1083 TetB; assay: as above; settings: arabinose-induced, ampicillin in medium
[8] = system: evaluated pathogens by tetracycline phenotype; assay: Broth microdilution MIC by tetracycline phenotype (Table 14)
H. influenzae HI551 = assay: Rat lung infection model; format: in vivo; settings: H. influenzae intratracheal, 50 mg/kg orally at 5, 24, 48 hours
[9] = Streptococcus intermedius, n=30

SMILES: CC(=O)NC[C@H]1CN(c2ccc(N3CCOCC3)c(F)c2)C(=O)O1 [linezolid, Linezolid]
- log10 reduction in CFU versus the 48 hour untreated control [1]: 3.56±0.63 log10
- MIC50 ([2]; Staphylococcus aureus, Staphylococcus aureus (MRSA PVL+), n=30, read-out: MIC50): 1 µg/mL (≈ 2.96 µM)
- MIC90 ([2]; Staphylococcus aureus, Staphylococcus aureus (MRSA PVL+), n=30, read-out: MIC90): 2 µg/mL (≈ 5.93 µM)
- MIC50 ([2]; Staphylococcus aureus, Staphylococcus aureus MRSA (includes MRSA PVL+ group), n=105, read-out: MIC50): 2 µg/mL (≈ 5.93 µM)
- MIC90 ([2]; Staphylococcus aureus, Staphylococcus aureus MRSA (includes MRSA PVL+ group), n=105, read-out: MIC90): 4 µg/mL (≈ 11.9 µM)
- MIC50 ([2]; Streptococcus anginosus, n=20): 0.5 µg/mL (≈ 1.48 µM)
- MIC90 ([2]; Streptococcus anginosus, n=20): 1 µg/mL (≈ 2.96 µM)
- MIC50 [2, 9]: 1 µg/mL (≈ 2.96 µM)
- MIC90 [2, 9]: 1 µg/mL (≈ 2.96 µM)
- MIC50 ([2]; Streptococcus mitis, n=29): 1 µg/mL (≈ 2.96 µM)
- MIC90 ([2]; Streptococcus mitis, n=29): 1 µg/mL (≈ 2.96 µM)
- MIC50 ([2]; Streptococcus sanguis, n=18, read-out: MIC50): 0.5 µg/mL (≈ 1.48 µM)
- MIC90 ([2]; Streptococcus sanguis, n=18, read-out: MIC90): 1 µg/mL (≈ 2.96 µM)

SMILES: CN(C)[C@@H]1C(O)=C(C(N)=O)C(=O)[C@@]2(O)C(O)=C3C(=O)c4c(O)cccc4[C@@](C)(O)[C@H]3C[C@@H]12 [Tetracycline, tetracycline]
- MIC EC969 TetM (E. coli DH10B EC969 TetM): 64
- MIC50 ([3]; TET NS, n=32): >4
- MIC90 ([3]; TET NS, n=32): >4
- MIC50 ([3]; TET S, n=65): 0.25
- MIC90 ([3]; TET S, n=65): 0.5
- MIC EC1082 TetA [4]: >128
- MIC EC971 LacZ (E. coli DH10B EC971 LacZ): 2
- MIC EC1153 Tet(X) [5]: >32
- MIC50 [6]: 4 µg/mL (≈ 9 µM)
- MIC90 [6]: 8 µg/mL (≈ 18 µM)
- MIC50 [2]: 0.25 µg/mL (≈ 0.563 µM)
- MIC90 [2]: > 8 µg/mL
- MIC50 ([2]; Acinetobacter lwoffii): 0.5 µg/mL (≈ 1.13 µM)
- MIC90 ([2]; Acinetobacter lwoffii): 4 µg/mL (≈ 9 µM)
- MIC50 ([2]; Enterobacter cloacae): 4 µg/mL (≈ 9 µM)
- MIC90 ([2]; Enterobacter cloacae): > 8 µg/mL
- MIC50 ([2]; Escherichia coli): > 8 µg/mL
- MIC90 ([2]; Escherichia coli): > 8 µg/mL
- MIC50 ([2]; Klebsiella aerogenes): 1 µg/mL (≈ 2.25 µM)
- MIC90 ([2]; Klebsiella aerogenes): 2 µg/mL (≈ 4.5 µM)
- MIC50 ([2]; Klebsiella pneumoniae): 8 µg/mL (≈ 18 µM)
- MIC90 ([2]; Klebsiella pneumoniae): > 8 µg/mL
- MIC50 ([2]; Morganella morganii): 2 µg/mL (≈ 4.5 µM)
- MIC90 ([2]; Morganella morganii): > 8 µg/mL
- MIC50 ([2]; Proteus vulgaris): 8 µg/mL (≈ 18 µM)
- MIC90 ([2]; Proteus vulgaris): > 8 µg/mL
- MIC50 ([2]; Serratia marcescens): > 8 µg/mL
- MIC90 ([2]; Serratia marcescens): > 8 µg/mL
- MIC50 ([2]; Staphylococcus aureus): 0.25 µg/mL (≈ 0.563 µM)
- MIC50 ([2]; Stenotrophomonas maltophilia): 8 µg/mL (≈ 18 µM)
- MIC90 ([2]; Stenotrophomonas maltophilia): > 8 µg/mL
- MIC50 ([2]; Streptococcus anginosus): 0.12 µg/mL (≈ 0.27 µM)
- MIC90 ([2]; Streptococcus anginosus): > 4 µg/mL
- MIC50 ([2]; Streptococcus intermedius): 0.25 µg/mL (≈ 0.563 µM)
- MIC90 ([2]; Streptococcus intermedius): > 4 µg/mL
- MIC50 ([2]; Streptococcus mitis): 0.5 µg/mL (≈ 1.13 µM)
- MIC90 ([2]; Streptococcus mitis): > 4 µg/mL
- MIC50 (S. maltophila; TET NS, n=19): >8
- MIC90 (S. maltophila; TET NS, n=19): >8
- MIC50 (S. maltophila; TET S, n=10): 4
- MIC90 (S. maltophila; TET S, n=10): 4
- MIC EC970 TetK (E. coli DH10B EC970 TetK): 64
- MIC EC1083 TetB [7]: >128
- MIC90 ([8]; F. faecalis, TET S, N=30): 500 µg/mL (≈ 1130 µM)
- MIC50 ([8]; Streptococcus pneumoniae, S. pneumoniae, TET NS, N=46): 16000 µg/mL (≈ 36000 µM)

SMILES: CC[C@H]1OC(=O)[C@H](C)[C@@H](O[C@H]2C[C@@](C)(OC)[C@@H](O)[C@H](C)O2)[C@H](C)[C@@H](O[C@@H]2O[C@H](C)C[C@H](N(C)C)[C@H]2O)[C@](C)(O)C[C@@H](C)CN(C)[C@H](C)[C@@H](O)[C@]1(C)O [Azithromycin, azithromycin, reference compound]
- reduction in lung CFU, oral comparator (H. influenzae HI551): 6.24±0.03 log10
